The GI50 is the concentration at which growth is held to half of that of the control.

Experimental findings from patent publication US9951049B2, “Pyrazole linked benzimidazole conjugates and a process for preparation thereof” (Council of Scientific & Industrial Reseach, priority 2014, dated 2018) are described below.

The test system of assay [1] is fifty six human tumor cell lines. In words: NCI human tumor cell line screen (48 h, SRB), all cell lines. The settings on record: various cell lines.
The subject of the next assay is CNS cancer cell lines. In words: NCI SRB screen, CNS panel average. The conditions noted are these: Homo sapiens, 48 h, read-out: Log10 GI50 (converted).
The next assay has as its system Colon cancer cell lines. In words: NCI SRB screen, Colon panel average. The settings on record: Homo sapiens, 48 h, read-out: Log10 GI50 (converted).
The next assay relates to Renal cancer cell lines. In words: NCI SRB screen, Renal panel average. The settings on record: Homo sapiens, 48 h, read-out: Log10 GI50 (converted).
In assay [2] the test system is Ovarian cancer cell lines. Description: NCI SRB screen, Ovarian panel average. The conditions noted are these: Homo sapiens, 48 h, read-out: Log10 GI50 (converted).
For another assay, the system named is Leukemia cell lines. In words: NCI SRB screen, Leukemia panel average. The settings on record: Homo sapiens, 48 h, read-out: Log10 GI50 (converted).
A further assay concerns Melanoma cell lines. In words: NCI SRB screen, Melanoma panel average. The conditions noted are these: Homo sapiens, 48 h, read-out: Log10 GI50 (converted).
The subject of assay [3] is Prostate cancer cell lines. In words: NCI SRB screen, Prostate panel average. The settings on record: Homo sapiens, 48 h, read-out: Log10 GI50 (converted).
In another assay the test system is Breast Cancer cell lines. Description: NCI SRB screen, Breast Cancer panel average. The settings on record: Homo sapiens, 48 h, read-out: Log10 GI50 (converted).
Assay [4] deals with Non-small-cell lung cancer cell lines. In words: NCI SRB screen, Non-small-cell lung panel average. The settings on record: Homo sapiens, 48 h, read-out: Log10 GI50 (converted).

With `COc1ccc(-c2cc(-c3nc4cc(F)ccc4[nH]3)[nH]n2)c(OC)c1` [7e, 2-(3-(2,4-dimethoxyphenyl)-1H-pyrazol-5-yl)-5-fluoro-1H-benzo[d]imidazole], the “mean graph pattern: profile of activity and selectivity” value in assay [1] was “an interesting profile of activity and selectivity”.

Take `COc1ccc(-c2cc(-c3nc4cc(Cl)ccc4[nH]3)[nH]n2)c(OC)c1` [8e, 5-chloro-2-(3-(2,4-dimethoxyphenyl)-1H-pyrazol-5-yl)-1H-benzo[d]imidazole]: in assay [1], the “mean graph pattern: profile of activity and selectivity” value was “an interesting profile of activity and selectivity”.

Regarding `COc1ccc(-c2cc(-c3nc4cc(Cl)c(F)cc4[nH]3)[nH]n2)c(OC)c1` [13e, 5-chloro-2-(3-(2,4-dimethoxyphenyl)-1H-pyrazol-5-yl)-6-fluoro-1H-benzo[d]imidazole], the “mean graph pattern: profile of activity and selectivity” value in assay [1] is “an interesting profile of activity and selectivity”.

For `COC(=O)Nc1nc2ccc(C(=O)c3cccs3)cc2[nH]1` [Nocodazole, reference compound], the GI50 with CNS cancer cell lines was 22.9 nM; in the assay on Colon cancer cell lines, 17.8 nM; in the assay on Renal cancer cell lines, 107 nM; in assay [2] it was 145 nM; in the assay on Leukemia cell lines it was 12.3 nM; in the assay on Melanoma cell lines, 22.4 nM. The GI50 in assay [3] is 14.5 nM; with Breast Cancer cell lines, 155 nM; in assay [4] it was 20.4 nM.

For `COc1ccc(-c2cc(-c3nc4cc([N+](=O)[O-])ccc4[nH]3)[nH]n2)c(OC)c1` [12e, 2-(3-(2,4-dimethoxyphenyl)-1H-pyrazol-5-yl)-5-nitro-1H-benzo[d]imidazole], in assay [1], the “mean graph pattern: profile of activity and selectivity” value is “an interesting profile of activity and selectivity”.

`COc1ccc(-c2cc(-c3nc4cc(C(F)(F)F)ccc4[nH]3)[nH]n2)c(OC)c1` [11e, 2-(3-(2,4-dimethoxyphenyl)-1H-pyrazol-5-yl)-5-(trifluoromethyl)-1H-benzo[d]imidazole]: in [1], the “mean graph pattern: profile of activity and selectivity” value was “an interesting profile of activity and selectivity”.

`COc1ccc(-c2cc(-c3nc4cc(Cl)c(Cl)cc4[nH]3)[nH]n2)c(OC)c1` [10e, 5,6-dichloro-2-(3-(2,4-dimethoxyphenyl)-1H-pyrazol-5-yl)-1H-benzo[d]imidazole]: the “mean graph pattern: profile of activity and selectivity” value in [1] is “an interesting profile of activity and selectivity”.
